According to publication PMC9613470, “Diverse MarR bacterial regulators of auxin catabolism in the plant microbiome” (Nature Microbiology, 2022):

Target: T1, Enterobacter soli LF7 MarR_Es (Enterobacter soli, UniProt A0AAW8H3I9, A146S)
T1 sequence (A0AAW8H3I9 1-157 A146S): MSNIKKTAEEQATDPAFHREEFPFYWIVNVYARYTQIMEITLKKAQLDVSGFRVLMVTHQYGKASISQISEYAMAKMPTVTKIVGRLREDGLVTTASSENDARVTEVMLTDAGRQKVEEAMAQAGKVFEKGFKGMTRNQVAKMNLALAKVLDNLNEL
Experiment: ITC IAA binding to MarR_Es
Conditions: 25 °C, IacR, read-out: KD1
Experimental: All ITC measurements were performed at 25 °C using an Auto-ITC200 microcalorimeter (MicroCal/GE Healthcare). The buffer employed was 20 mM HEPES, pH 7.4, 50 mM NaCl and 0.5% dimethly sulfoxide (DMSO) for protein/ligand binding and 20 mM HEPES, pH 7.4 and 300 mM NaCl for DNA/protein binding experiments. For ligand binding experiments, the calorimetry cell (volume 200 ml) was loaded with MarR wild-type, mutant or homologue protein at a concentration of 50 μM. The syringe was loaded with a ligand concentration of 0.5 or 2 mM. […] A typical injection protocol included a single 0.2 μl first injection followed by 20 1.5 μl injections of the syringe sample into the calorimetry cell. The spacing between injections was kept at 180 s and the reference power at 8 μcal s^−1. The data were analysed using Origin for ITC version 7.0 software supplied by the manufacturer and fit well to a one-site binding model. Two independent ITC measurements were performed for each condition.

O=C(O)Cc1c[nH]c2ccccc12 [IAA, indole-3-acetic acid]
Kd: 2910 ± 96 nM
